The source of these data is ChEMBL document CHEMBL1909046, “DrugMatrix in vitro pharmacology data”.

The target in one series is Cytochrome P450 2D6 (Homo sapiens, UniProt P10635). The following applies: bti-tn-5b1-4. Further: in other assays of this panel Not Active means under 50% inhibition at 10 µM.
A short description of series [1]: DRUGMATRIX: Sigma2 radioligand binding (ligand: [3H] Ifenprodil). The class given is cell membranes, Rattus norvegicus, Wistar, Brain, Membrane. The following applies: Not Active = under 50% inhibition at 10 µM.
The next series addresses T1, Interstitial collagenase (Homo sapiens, UniProt P03956).
T1 sequence (P03956 whole entry): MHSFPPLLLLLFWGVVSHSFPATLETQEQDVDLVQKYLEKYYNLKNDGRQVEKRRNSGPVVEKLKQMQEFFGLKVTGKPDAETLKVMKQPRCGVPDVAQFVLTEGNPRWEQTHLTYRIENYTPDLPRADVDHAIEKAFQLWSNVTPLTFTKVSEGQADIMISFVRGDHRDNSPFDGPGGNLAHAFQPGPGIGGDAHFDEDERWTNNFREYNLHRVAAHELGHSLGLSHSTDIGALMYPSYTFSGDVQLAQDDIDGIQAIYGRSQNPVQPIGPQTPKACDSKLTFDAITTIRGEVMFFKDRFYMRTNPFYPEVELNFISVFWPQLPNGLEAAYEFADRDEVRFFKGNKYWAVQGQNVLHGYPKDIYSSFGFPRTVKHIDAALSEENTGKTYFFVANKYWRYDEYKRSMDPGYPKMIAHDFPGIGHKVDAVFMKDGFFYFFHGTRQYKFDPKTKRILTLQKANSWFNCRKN
The series is described as follows: biochemical. The class given is tissue-based, Rheumatoid synovial fibroblasts.

Series [2] in a line: DRUGMATRIX: Imidazoline I2, Central radioligand binding (ligand: [3H] Idazoxan). The class given is cell membranes, Rattus norvegicus, Wistar, Cerebral cortex, Membrane. The following applies: Not Active = under 50% inhibition at 10 µM.
Series [3] addresses Epidermal growth factor receptor (Homo sapiens, UniProt P00533). Kind of series: DRUGMATRIX: Protein Tyrosine Kinase, EGF Receptor enzyme inhibition (substrate: Poly(Glu:Tyr)). The class given is cell-based, Insect cells. The following applies: insect cells; Not Active = under 50% inhibition at 10 µM.
Series [4] in a line: DRUGMATRIX: Phosphodiesterase PDE3 enzyme inhibition (substrate: [3H]cAMP + cAMP). The conditions noted are these: platelet; Not Active = under 50% inhibition at 10 µM. The class given is tissue-based, Homo sapiens.

As a reminder, the IC50 is the point on the concentration scale where inhibition reaches its midpoint. As a reminder, the Ki is a measure of affinity in units of concentration, obtained from inhibition or displacement.

Sequence of Cytochrome P450 2D6 (P10635 whole entry): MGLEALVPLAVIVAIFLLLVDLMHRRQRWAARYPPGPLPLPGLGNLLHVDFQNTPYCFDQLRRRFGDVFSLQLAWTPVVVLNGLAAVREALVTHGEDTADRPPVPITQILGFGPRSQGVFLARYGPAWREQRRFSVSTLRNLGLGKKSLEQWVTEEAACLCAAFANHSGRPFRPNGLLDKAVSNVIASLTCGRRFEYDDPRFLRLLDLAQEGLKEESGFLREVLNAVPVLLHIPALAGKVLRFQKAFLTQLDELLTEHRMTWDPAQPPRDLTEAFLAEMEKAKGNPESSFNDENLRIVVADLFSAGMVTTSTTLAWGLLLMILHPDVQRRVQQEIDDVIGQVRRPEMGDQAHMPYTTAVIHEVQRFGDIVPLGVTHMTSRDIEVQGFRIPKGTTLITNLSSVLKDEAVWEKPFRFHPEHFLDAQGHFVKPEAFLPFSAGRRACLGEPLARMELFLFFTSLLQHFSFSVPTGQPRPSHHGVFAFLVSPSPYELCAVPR

For `COc1cc(NC(C)CCCN)c2ncccc2c1` (configuration not stated) [PRIMAQUINE], the IC50 entry (on Cytochrome P450 2D6; in series [1]; on Interstitial collagenase; in series [2]; in series [3]; in series [4]) was “Not Active” each time. The inhibition constant Ki result (on Cytochrome P450 2D6; in series [1]; in series [2]; in series [4]) was “Not Active” in each case.

Take `OC[C@H]1O[C@@H]2O[C@H]3[C@H](O)[C@@H](O)[C@@H](O[C@H]4[C@H](O)[C@@H](O)[C@@H](O[C@H]5[C@H](O)[C@@H](O)[C@@H](O[C@H]6[C@H](O)[C@@H](O)[C@@H](O[C@H]7[C@H](O)[C@@H](O)[C@@H](O[C@H]8[C@H](O)[C@@H](O)[C@@H](O[C@H]1[C@H](O)[C@H]2O)O[C@@H]8CO)O[C@@H]7CO)O[C@@H]6CO)O[C@@H]5CO)O[C@@H]4CO)O[C@@H]3CO` [BETADEX]: the IC50 entry (at Cytochrome P450 2D6; in series [1]; against Interstitial collagenase; in series [2]; in series [3]; in series [4]) was “Not Active” each time. Besides, the Ki result (at Cytochrome P450 2D6; in series [1]; in series [2]; in series [4]) was “Not Active” each time.

On to `COc1cc([C@@H]2c3cc4c(cc3[C@H](O)[C@H]3COC(=O)[C@H]23)OCO4)cc(OC)c1OC` [PODOFILOX], for which the IC50 entry (against Cytochrome P450 2D6; in series [1]; at Interstitial collagenase; in series [2]; in series [3]; in series [4]) was “Not Active” throughout. Besides, the Ki result (on Cytochrome P450 2D6; in series [1]; in series [2]; in series [4]) was “Not Active” in each case.

For CARBOXYMETHYLCELLULOSE, the IC50 result (against Cytochrome P450 2D6; in series [1]; on Interstitial collagenase; in series [2]; in series [3]; in series [4]) was “Not Active” throughout. In addition, the inhibitory constant (Ki) entry (on Cytochrome P450 2D6; in series [1]; on Interstitial collagenase; in series [2]; in series [3]; in series [4]) was “Not Active” in each case.

For `NC(=O)CN1CCCC1=O`, the IC50 result (against Cytochrome P450 2D6; in series [1]; at Interstitial collagenase; in series [2]; in series [3]; in series [4]) was “Not Active” throughout. Further, the Ki entry (on Cytochrome P450 2D6; in series [1]; in series [2]; in series [4]) was “Not Active” each time.

On to `CNC[C@H](O)c1ccc(O)c(O)c1` [EPINEPHRINE], for which the IC50 result is “Not Active” against Cytochrome P450 2D6; “Not Active” in series [1]; “Not Active” on Interstitial collagenase; 232 nM in series [2] (read-out: IC50); “Not Active” in series [3]; “Not Active” in series [4]. Also, the inhibitory constant (Ki) entry on Cytochrome P450 2D6 was “Not Active”; in series [1], “Not Active”; in series [2] (read-out: Ki) it was 154 nM; in series [4] it was “Not Active”.

Consider `c1ccc2c(c1)Nc1ccccc1S2` [PHENOTHIAZINE], for which the 50% inhibitory concentration (IC50) entry (on Cytochrome P450 2D6; in series [1]; at Interstitial collagenase; in series [2]; in series [3]; in series [4]) was “Not Active” each time. Moreover, the inhibition constant Ki result (on Cytochrome P450 2D6; in series [1]; in series [2]; in series [4]) was “Not Active” throughout.

Consider `ClC1=C(Cl)[C@]2(Cl)[C@@H]3[C@@H]4C[C@@H]([C@H]5O[C@@H]45)[C@@H]3[C@@]1(Cl)C2(Cl)Cl` [DIELDRIN], for which the half-inhibitory concentration (IC50) result (against Cytochrome P450 2D6; in series [1]; at Interstitial collagenase; in series [2]; in series [3]; in series [4]) was “Not Active” in each case. Moreover, the inhibition constant (Ki) entry (on Cytochrome P450 2D6; in series [1]; in series [2]; in series [4]) was “Not Active” in each case.

On to `CC(C)(c1ccc(O)cc1)c1ccc(O)cc1` [BISPHENOL A], for which the half-inhibitory concentration (IC50) entry (on Cytochrome P450 2D6; in series [1]; on Interstitial collagenase; in series [2]; in series [3]; in series [4]) was “Not Active” in each case. The Ki entry (on Cytochrome P450 2D6; in series [1]; in series [2]; in series [4]) was “Not Active” in each case.

As to `CCO` [ALCOHOL], the IC50 entry (on Cytochrome P450 2D6; in series [1]; on Interstitial collagenase; in series [2]; in series [3]; in series [4]) was “Not Active” throughout. The Ki entry (on Cytochrome P450 2D6; in series [1]; in series [2]; in series [4]) was “Not Active” in each case.

Consider `CCN1CCN(C(=O)N[C@@H](C(=O)N[C@@H]2C(=O)N3[C@@H]2SC(C)(C)[C@@H]3C(=O)O)c2ccccc2)C(=O)C1=O` [PIPERACILLIN], for which the IC50 entry (on Cytochrome P450 2D6; in series [1]; at Interstitial collagenase; in series [2]; in series [3]; in series [4]) was “Not Active” each time. Moreover, the Ki entry (on Cytochrome P450 2D6; in series [1]; in series [2]; in series [4]) was “Not Active” in each case.

For `NC(=O)NC(=O)Cc1ccccc1` [PHENACEMIDE], the 50% inhibitory concentration (IC50) entry (against Cytochrome P450 2D6; in series [1]; against Interstitial collagenase; in series [2]; in series [3]; in series [4]) was “Not Active” each time. Besides, the inhibition constant (Ki) entry (at Cytochrome P450 2D6; in series [1]; in series [2]; in series [4]) was “Not Active” in each case.

Take `CC(CN1c2ccccc2Sc2ccccc21)N(C)C` (configuration not stated) [PROMETHAZINE]: the 50% inhibitory concentration (IC50) entry is “Not Active” on Cytochrome P450 2D6; “Not Active” in series [1]; “Not Active” on Interstitial collagenase; 1990 nM in series [2] (read-out: IC50); “Not Active” in series [3]; “Not Active” in series [4]. Also, the inhibition constant (Ki) result was “Not Active” at Cytochrome P450 2D6, “Not Active” in series [1], 1330 nM in series [2] (read-out: Ki) and “Not Active” in series [4].

`Nc1ccc(Cc2ccc(N)cc2)cc1`: the IC50 result (against Cytochrome P450 2D6; in series [1]; on Interstitial collagenase; in series [2]; in series [3]; in series [4]) was “Not Active” in each case. The Ki entry (on Cytochrome P450 2D6; in series [1]; in series [2]; in series [4]) was “Not Active” throughout.

Regarding `CC[C@H]1OC(=O)[C@H](C)[C@@H](O[C@H]2C[C@@](C)(OC)[C@@H](O)[C@H](C)O2)[C@H](C)[C@@H](O[C@@H]2O[C@H](C)C[C@H](N(C)C)[C@H]2O)[C@](C)(O)C[C@@H](C)C(=O)[C@H](C)[C@@H](O)[C@]1(C)O` [ERYTHROMYCIN], the IC50 entry (against Cytochrome P450 2D6; in series [1]; at Interstitial collagenase; in series [2]; in series [3]; in series [4]) was “Not Active” in each case. The inhibitory constant (Ki) entry (on Cytochrome P450 2D6; in series [1]; in series [2]; in series [4]) was “Not Active” in each case.
